From patent US9120776B2, “Condensed heterocyclic compound” (Takeda Pharmaceutical Company Limited, priority 2011, dated 2015)
Read-outs that look alike come from different tables or passages of the source.

Key:
RORγt [1] = target: T1, RORγt (Homo sapiens, UniProt P51449); assay: Cofactor Recruitment Test (Alpha Screen, biotinylated SRC-1 peptide); format: biochemical; design: histidine tag (implied by the Histidine Detection Kit); details: signal value inhibitory rate at test compound 1 μM
T1 sequence (P51449 1-497 isoform P51449-2): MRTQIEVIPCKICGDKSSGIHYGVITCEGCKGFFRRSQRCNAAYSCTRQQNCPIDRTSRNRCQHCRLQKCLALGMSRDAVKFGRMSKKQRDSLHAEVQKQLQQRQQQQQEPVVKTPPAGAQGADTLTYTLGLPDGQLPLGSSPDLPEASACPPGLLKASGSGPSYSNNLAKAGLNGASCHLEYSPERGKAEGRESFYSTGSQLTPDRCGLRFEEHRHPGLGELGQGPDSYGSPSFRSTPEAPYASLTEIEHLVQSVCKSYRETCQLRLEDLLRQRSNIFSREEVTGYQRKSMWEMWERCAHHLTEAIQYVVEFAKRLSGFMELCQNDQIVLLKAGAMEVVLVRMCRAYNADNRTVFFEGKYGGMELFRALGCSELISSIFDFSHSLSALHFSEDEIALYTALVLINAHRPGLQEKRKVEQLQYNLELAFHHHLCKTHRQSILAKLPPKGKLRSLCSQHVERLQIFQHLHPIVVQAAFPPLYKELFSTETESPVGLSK
Procedure: Cofactor recruitment test was performed by Alpha Screen (Histidine Detection Kit, PerkinElmer) method. First, a test compound diluted with an assay buffer (50 mM Tris-HCl (pH 7.5), 50 mM KCl, 1 mM DTT, 0.1% BSA) was added to a 384 well plate by 5 μL each. […] The mixture was stood in a dark place for 1 hr, and the signal value was measured by Envision (PerkinElmer).

RORγt [2] = target: T1, RORγt; assay: RORγt Binding Test (TR-FRET, fluorescent-labeled cholesterol); design: histidine tag (implied by the Histidine Detection Kit); details: binding inhibitory rate of fluorescent-labeled cholesterol to RORγt at test compound 1 μM
Procedure: The binding activity of the test compound to RORγt was measured by a time resolved fluorescence resonance energy transfer method (TR-FRET) utilizing histidine-tagged RORγt, fluorescent-labeled cholesterol (BODIPY-cholesterol, AVIVA) and terbium-labeled anti-histidine tag antibody (Invitrogen). First, a test compound diluted with an assay buffer (20 mM Tris-HCl (pH 7.5), 100 mM NaCl, 1 mM DTT, 0.1% BSA) was added to a 384 well plate by 3 μL each. Then, RORγt diluted with an assay buffer to 240 nM was added by 3 μL each, after which fluorescent-labeled cholesterol diluted with the assay buffer to 12 μM was added by 3 μL each, and the mixture was stood at room temperature for 20 min. Thereafter, a terbium-labeled anti-histidine tag antibody diluted with the assay buffer to 8 nM was added by 3 μL each. The mixture was stood at room temperature for 20 min, and fluorescence intensity (excitation wavelength 320 nm, fluorescence wavelength 520 nm, delay time 100 microseconds) was measured by Envision (PerkinElmer).

RORγt [3] = target: T1, RORγt; assay: Jurkat Reporter Test (human IL-17 ROR response element luciferase, RORγt vector); format: cell-based; details: read-out: inhibitory rate (%)
Procedure: The Jurkat cells used for the reporter test were cultured in a culture medium (RPMI (Invitrogen), 10% FCS (AusGeneX), 100 U/mL penicillin, 100 μg/mL streptomycin). On the day of the test, 4×10^7 cells were recovered by a centrifugal operation (1000 rpm, 5 min.) and suspended in PBS (phosphate buffered saline) (Invitrogen). Thereafter, the cells were recovered again by a centrifugal operation, and suspended in 2 mL of R buffer (NEON transfection kit, Invitrogen). […] Gene transfer was performed by Electroporation apparatus (NEON, Invitrogen) under the conditions of pulse voltage 1350 V, interval 10 milliseconds, number of times 3. The cells after gene transfer were suspended in 40 mL of a reaction medium (RPMI, 10% Lipid reduced FCS (HyClone), 10 mM HEPES (pH 7.5), 100 U/mL penicillin, 100 μg/mL streptomycin, 5 μM lovastatin), and plated in a 96 well plate by 90 μL each. A test compound diluted with the reaction medium was added by 10 μL each, and the cells were cultured overnight in an incubator. Bright-Glo (Promega) was added by 100 μL each, and the mixture was stirred at room temperature for 10 min, and the luminescence level was measured by Envision (PerkinElmer).

Th17 cells = assay: Mouse Th17 Cell Differentiation Test (IL-17A in culture supernatant, ELISA); format: cell-based; details: inhibitory rate at 10 μM of test compound, mouse CD4 positive naive T cells, 4 days, IL-17A by ELISA; for inhibition at 10 µM: 96 h
Procedure: CD4 positive naive T cells were collected from the spleen cells of BALB/c mice (female, 8-11w, Charles River Laboratories Japan, Inc.) using CD4+CD62L+ T Cell Isolation kit II (Miltenyi Biotec). The CD4 positive naive T cells in a 96 well plate (3×10^5 cells/well) were stimulated (37° C. for culture) with anti-mouse CD3ε antibody (Bio X cell) (10 μg/mL, solid phase) and anti-CD28 antibody (Bio X cell) (5 μg/mL) for 4 days in the presence of anti-IFN-γ antibody (BioLegend), anti-IL-4 antibody (BioLegend), anti-IL-2 antibody (BioLegend), IL-6, TGF-β and IL-23 to differentiate into Th17 cells. The compound was dissolved in DMSO and then added thereto. The cells were cultured under these conditions for 4 days, and differentiation of the Th17 cells was evaluated by using the concentration of IL-17A, which was measured by ELISA, in the culture supernatant obtained by centrifugation.

human PBMC = assay: IL17 Production Test in Human PBMC; format: cell-based; details: 72 h, inhibitory rate at 10 μM of test compound, anti-CD3/CD28 stimulation, 3 days, IL-17A by ELISA
Procedure: Peripheral blood mononuclear cells (PBMC) collected from human peripheral blood by a density gradient centrifugation method were stimulated by Dynabeads (registered trade mark; anti-CD3/CD28 antibody) and cultured at 37° C. for 3 days. The compound was dissolved in DMSO and then added thereto. After culture for 3 days under such conditions, the concentration of IL-17A in the culture supernatant obtained by centrifugation was measured by ELISA to evaluate the effect of the compound on IL-17 production.

[4] = luminescence level inhibitory rate at test compound 3 μM, Jurkat cells

Structure (SMILES)	inhibition at 1 µM (RORγt [1]) [%]	inhibition at 1 µM (RORγt [2]) [%]	inhibition at 3 µM (RORγt [3]; [4]) [%]	inhibition at 10 µM (Th17 cells) [%]	inhibition at 3 µM (RORγt [3]; Jurkat) [%]	inhibitory rate (%) (Th17 cells; 10 µM)	inhibition at 10 µM (Th17 cells; Mus musculus, CD4 positive) [%]	inhibition at 10 µM (human PBMC) [%]
CCn1c2ccccc2c2cc(NC(=O)CC(C)CC(=O)Nc3ccc(C#N)nc3)ccc21 (stereo not shown) [Example 49, N-(6-cyanopyridin-3-yl)-N′-(9-ethyl-9H-carbazol-3-yl)-3-methylpentanediamide]	104	93.9	109					
CCn1c2ccccc2c2cc(NC(=O)CSCC(=O)Nc3ccc(C#N)cc3)ccc21 [Example 24, 2-({2-[(4-cyanophenyl)amino]-2-oxoethyl}sulfanyl)-N-(9-ethyl-9H-carbazol-3-yl)acetamide]	101	98.9	100	96				
CCn1c2ccccc2c2cc(NC(=O)C3CCC3C(=O)Nc3ccc(C#N)c(Cl)c3)ccc21 (stereo not shown) [Example 40, N-(3-chloro-4-cyanophenyl)-N′-(9-ethyl-9H-carbazol-3-yl)cyclobutane-1,2-dicarboxamide]	102	96.3			99.3			
CCn1c2ccccc2c2cc(NC(=O)CC(C)CC(=O)Nc3ccc(C#N)cc3)ccc21 (stereo not shown) [Step 1 of Example 15, N^1-(4-cyanophenyl)-N^5-(9-ethyl-9H-carbazol-3-yl)-3-methylpentanediamide]				93.2				
CCn1c2ccccc2c2cc(NC(=O)CC(C)CC(=O)Nc3ccc(C#N)c(OC)c3)ccc21 (stereo not shown) [Example 41, N-(4-cyano-3-methoxyphenyl)-N′-(9-ethyl-9H-carbazol-3-yl)-3-methylpentanediamide]	100	93.4	96.4					
CCn1c2ccccc2c2cc(NC(=O)CC(C)CC(=O)Nc3ccc(C#N)c(Cl)c3)ccc21 (stereo not shown) [Example 26, N-(3-chloro-4-cyanophenyl)-N′-(9-ethyl-9H-carbazol-3-yl)-3-methylpentanediamide]						96.1		
CCn1c2ccccc2c2cc(NC(=O)C(C)CCC(=O)Nc3ccc(C#N)c(Cl)c3)ccc21 (stereo not shown) [Example 42, N^5-(3-chloro-4-cyanophenyl)-N^1-(9-ethyl-9H-carbazol-3-yl)-2-methylpentanediamide]	101	101			104			
CCn1c2ccccc2c2cc(NC(=O)C[S+]([O-])CC(=O)Nc3ccc(C#N)cc3)ccc21 (stereo not shown) [Example 34, 2-((2-((4-cyanophenyl)amino)-2-oxoethyl)sulfinyl)-N-(9-ethyl-9H-carbazol-3-yl)acetamide]	103	94.6	82.7	96.3				
CCn1c2ccccc2c2cc(NC(=O)CC(C)CCOc3ccc(C#N)c(C)c3)ccc21 (stereo not shown) [Example 44, 5-(4-cyano-3-methylphenoxy)-N-(9-ethyl-9H-carbazol-3-yl)-3-methylpentanamide]	98.7	62.9	77.8					
CCn1c2ccccc2c2cc(NC(=O)CCC(C)C(=O)Nc3ccc(C#N)c(Cl)c3)ccc21 (stereo not shown) [Example 43, N^1-(3-chloro-4-cyanophenyl)-N^5-(9-ethyl-9H-carbazol-3-yl)-2-methylpentanediamide]	102	100			104			
CCn1c2ccccc2c2cc(NC(=O)CC(C)CCOc3ccc(C#N)c(C#N)c3)ccc21 (stereo not shown) [Example 55, 5-(3,4-dicyanophenoxy)-N-(9-ethyl-9H-carbazol-3-yl)-3-methylpentanamide]	104	82.2	102					
CCn1c2ccccc2c2cc(NC(=O)CC(CC(=O)Nc3ccc(C#N)c(Cl)c3)c3ccccc3)ccc21 (stereo not shown) [Example 39, N-(3-chloro-4-cyanophenyl)-N′-(9-ethyl-9H-carbazol-3-yl)-3-phenylpentanediamide]	102	91.4			93.2			
CCn1c2ccccc2c2cc(NC(=O)CC(C)CC(=O)Nc3ccc(C#N)cn3)ccc21 (stereo not shown) [Example 50, N-(5-cyanopyridin-2-yl)-N′-(9-ethyl-9H-carbazol-3-yl)-3-methylpentanediamide]	103	88.8	110					
CCn1c2ccccc2c2cc(NC(=O)CC(C)CCOc3ccc(C#N)c(Cl)c3)ccc21 (stereo not shown) [Example 38, 5-(3-chloro-4-cyanophenoxy)-N-(9-ethyl-9H-carbazol-3-yl)-3-methylpentanamide]	102	91.9	99.4					
CCn1c2ccccc2c2cc(NC(=O)CC(C)CC(=O)Nc3ccc(C#N)c(Cl)c3)ccc21 (stereo not shown) [Example 25, N-(3-chloro-4-cyanophenyl)-N′-(9-ethyl-9H-carbazol-3-yl)-3-methylpentanediamide]							96.1	
CCn1c2ccccc2c2cc(C(=O)NCC(C)CC(=O)Nc3ccc(C#N)c(Cl)c3)ccc21 (stereo not shown) [Example 48, N-{4-[(3-chloro-4-cyanophenyl)amino]-2-methyl-4-oxobutyl}-9-ethyl-9H-carbazole-3-carboxamide]	106	104			115		96.9	97.6
